According to patent EP4563146A1 (IRBM S.P.A., priority 2023, dated 2025):
Where two headings read alike, the source gives them in different places.

What was measured:
[1] = target: T1, West Nile Virus (WNV) NS2B-NS3 protease (West Nile virus, UniProt Q9Q6P4); assay: WNV protease inhibition assay; type: biochemical; details: Table 4; letter codes for IC50
T1 construct: NS2B1423-1470); purchased R&D 2907-SE-020
Excerpt: WNV protease inhibition assay

[2] = system: ZIKV replicon; assay: ZIKV replication inhibition assay (NanoLuc replicon in Vero cells); details: 72 h
[3] = Zika virus, Vero, read-out: ZIKA Cell_Nanoluc
[4] = Zika virus, Vero, read-out: ZIKA Cell_Nanoluc, Vero cells with stable ZIKV replicon, 72 h, Nano-Glo readout
[5] = read-out: ZIKA Cell_Nanoluc, Vero cells with stable ZIKV replicon, Nano-Glo readout

T1 sequence (Q9Q6P4 1423-1470): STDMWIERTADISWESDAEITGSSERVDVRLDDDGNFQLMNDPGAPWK
T1 sequence (Q9Q6P4 1506-1689): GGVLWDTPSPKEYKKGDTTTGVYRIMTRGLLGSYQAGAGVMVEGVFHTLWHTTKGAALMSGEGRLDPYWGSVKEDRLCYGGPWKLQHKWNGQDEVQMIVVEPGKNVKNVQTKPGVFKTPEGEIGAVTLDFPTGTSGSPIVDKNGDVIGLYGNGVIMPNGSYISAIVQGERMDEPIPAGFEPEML

`Cc1cccc(CC(=O)Nc2cc(NC(=O)[N-]c3c[n+]([C@H]4CC[C@H](CN(C)C)CC4)no3)cc(C(F)(F)F)c2)c1C` [Example 212, (3-((1R,4R)-4-((Dimethylamino)methyl)-cyclohexyl)-1,2,3-oxadiazol-3-ium-5-yl)((3-(2-(2,3-dimethylphenyl)acetamido)-5-(trifluoromethyl)phenyl)carbamoyl)amide] showed an IC50 [1] of 100 to 1000 nM and an EC50 [2, 3] of 1000 to 20000 nM.

`Cc1ccccc1CC(=O)Nc1cc(NC(=O)[N-]c2c[n+]([C@@H]3CCC[C@H](O)C3)no2)cc(C(F)(F)F)c1` [Example 214, (3-((1R,3S)-3-Hydroxycyclohexyl)-1,2,3-oxadiazol-3-ium-5-yl)((3-(2-(o-tolyl)acetamido)-5-(trifluoromethyl)phenyl)carbamoyl)amide] showed an IC50 [1] of 100 to 1000 nM and an EC50 [2, 4] of 1000 to 20000 nM.

Work on `CNC(=O)[C@@H]1CCC[C@@H]([n+]2cc([N-]C(=O)Nc3cc(NC(=O)Cc4ccccc4C)cc(C(F)(F)F)c3)on2)C1` (racemic) [Example 252, rac-(3-((1R,3R)-3-(Methylcarbamoyl)-cyclohexyl)-1,2,3-oxadiazol-3-ium-5-yl)((3-(2-(o-tolyl)-acetamido)-5-(trifluoromethyl)phenyl)-carbamoyl)amide] yielded an IC50 [1] of 100 to 1000 nM and an EC50 [2, 4] of 1000 to 20000 nM.

`CN(C)C[C@H]1CC[C@H]([n+]2cc([N-]C(=O)Nc3cc(NC(=O)CS(=O)(=O)c4ccccc4)cc(C(F)(F)F)c3)on2)CC1` [Example 151, (3-((1R,4R)-4-((Dimethylamino)methyl)-cyclohexyl)-1,2,3-oxadiazol-3-ium-5-yl)((3-(2-(phenylsulfonyl)acetamido)-5-(trifluoromethyl)phenyl)carbamoyl)amide] was tested, and the IC50 [1] was 100 to 1000 nM and the EC50 [2, 5] was 1000 to 20000 nM.

`CN(C)[C@@H]1CCC[C@@H]([n+]2cc([N-]C(=O)Nc3cc(NC(=O)Cc4ccccc4)cc(C(F)(F)F)c3)on2)C1` [Example 173, (3-((1R,3R)-3-(Dimethylamino)cyclohexyl)-1,2,3-oxadiazol-3-ium-5-yl)((3-(2-phenylacetamido)-5-(trifluoromethyl)phenyl)-carbamoyl)amide] was tested, and the IC50 [1] was < 100 nM and the EC50 [2, 4] was 100 to 1000 nM.

Work on `Cc1ccccc1CC(=O)Nc1cc(NC(=O)[N-]c2c[n+]([C@@H]3CCCC[C@H]3O)no2)cc(C(F)(F)F)c1` [Example 203, (3-((1R,2R)-2-Hydroxycyclohexyl)-1,2,3-oxadiazol-3-ium-5-yl)((3-(2-(o-tolyl)acetamido)-5-(trifluoromethyl)phenyl)carbamoyl)amide] yielded an IC50 [1] of 100 to 1000 nM and an EC50 [2, 4] of 100 to 1000 nM.

For `CN(C)C[C@H]1CC[C@H]([n+]2cc([N-]C(=O)Nc3cc(NC(=O)Cc4cccc(F)c4F)cc(C(F)(F)F)c3)on2)CC1` [Example 169, ((3-(2-(2,3-Difluorophenyl)acetamido)-5-(trifluoromethyl)phenyl)carbamoyl)(3-((1R,4R)-4-((dimethylamino)methyl)cyclohexyl)-1,2,3-oxadiazol-3-ium-5-yl)amide], the IC50 [1] was < 100 nM and the EC50 [2, 3] was 100 to 1000 nM.

With `CC(C(=O)Nc1cc(NC(=O)[N-]c2c[n+]([C@H]3CC[C@H](CN(C)C)CC3)no2)cc(C(F)(F)F)c1)c1ccccc1Cl` (stereo partly drawn) [Example 205, ((3-(2-(2-Chlorophenyl)propanamido)-5-(trifluoromethyl)phenyl)carbamoyl)(3-((1R,4R)-4-((dimethylamino)methyl)cyclohexyl)-1,2,3-oxadiazol-3-ium-5-yl)amide] the IC50 [1] was 100 to 1000 nM and the EC50 [2, 3] was 1000 to 20000 nM.

`CNC(=O)[C@@H]1CCC[C@@H]([n+]2cc([N-]C(=O)Nc3cc(NC(=O)Cc4ccccc4C)cc(C(F)(F)F)c3)on2)C1` [Example 231, (3-((1R,3R)-3-(Methylcarbamoyl)cyclohexyl)-1,2,3-oxadiazol-3-ium-5-yl)((3-(2-(o-tolyl)acetamido)-5-(trifluoromethyl)phenyl)-carbamoyl)amide] was tested, and the IC50 [1] was < 100 nM and the EC50 [2, 4] was 1000 to 20000 nM.

In the case of `CCC(C(=O)Nc1cc(NC(=O)[N-]c2c[n+]([C@H]3CC[C@H](CN(C)C)CC3)no2)cc(C(F)(F)F)c1)c1ccccc1` (stereo partly drawn) [Example 165, (3-((1R,4R)-4-((Dimethylamino)methyl)-cyclohexyl)-1,2,3-oxadiazol-3-ium-5-yl)((3-(2-phenylbutanamido)-5-(trifluoromethyl)phenyl)-carbamoyl)amide], the IC50 [1] is reported as 100 to 1000 nM and the EC50 [2, 3] is reported as 100 to 1000 nM.

With `CN(C)C[C@H]1CC[C@H]([n+]2cc([N-]C(=O)Nc3cc(NC(=O)Cc4cccc(CC(N)=O)c4)cc(C(F)(F)F)c3)on2)CC1` [Example 162, ((3-(2-(3-(2-Amino-2-oxoethyl)phenyl)-acetamido)-5-(trifluoromethyl)phenyl)-carbamoyl)(3-((1R,4R)-4-((dimethylamino)-methyl)cyclohexyl)-1,2,3-oxadiazol-3-ium-5-yl)amide] the IC50 [1] was 100 to 1000 nM and the EC50 [2, 3] was 1000 to 20000 nM.

In the case of `Cc1ncnc(C)c1-c1ccc(C[n+]2cc([N-]C(=O)Nc3ccnc(C(C)(C)C)c3)on2)cc1` [Example 226, ((2-(tert-Butyl)pyridin-4-yl)carbamoyl)(3-(4-(4,6-dimethylpyrimidin-5-yl)benzyl)-1,2,3-oxadiazol-3-ium-5-yl)amide], the IC50 [1] is reported as < 100 nM and the EC50 [2, 4] is reported as 1000 to 20000 nM.

In the case of `Cc1ccccc1CC(=O)Nc1cc(NC(=O)[N-]c2c[n+]([C@@H]3CCC[C@@H](O)C3)no2)cc(C(F)(F)F)c1` [Example 215, (3-((1R,3R)-3-Hydroxycyclohexyl)-1,2,3-oxadiazol-3-ium-5-yl)((3-(2-(o-tolyl)acetamido)-5-(trifluoromethyl)phenyl)carbamoyl)amide], the IC50 [1] is reported as < 100 nM and the EC50 [2, 4] is reported as < 100 nM.

In the case of `Cc1cnn(C2COC2)c1-c1ccc(C[n+]2cc([N-]C(=O)Nc3ccnc(C(F)(F)F)c3)on2)cc1` [Example 239, (3-((4-(4-Methyl-2-(oxetan-3-yl)pyrazol-3-yl]phenyl)methyl)oxadiazol-3-ium-5-yl)-((2-(trifluoromethyl)pyridin-4-yl)carbamoyl)-azanide], the IC50 [1] is reported as < 100 nM and the EC50 [2, 3] is reported as < 100 nM.

Compound `Cc1ncnc(C)c1-c1ccc(C[n+]2cc([N-]C(=O)N[C@H]3CC[C@@]4(C3)CC4(F)F)on2)nc1` (racemic) [Example 180, rac-(((3R,5S)-1,1-Difluorospiro[2.4]heptan-5-yl)carbamoyl)(3-((5-(4,6-dimethylpyrimidin-5-yl)pyridin-2-yl)methyl)-1,2,3-oxadiazol-3-ium-5-yl)amide] has an IC50 [1] of 1000 to 20000 nM and an EC50 [2, 4] of 1000 to 20000 nM.

`CNC(=O)[C@H]1CCC[C@@H]([n+]2cc([N-]C(=O)Nc3cc(NC(=O)Cc4ccccc4C)cc(C(F)(F)F)c3)on2)C1` [Example 232, (3-((1R,3S)-3-(Methylcarbamoyl)cyclohexyl)-1,2,3-oxadiazol-3-ium-5-yl)((3-(2-(o-tolyl)acetamido)-5-(trifluoromethyl)phenyl)-carbamoyl)amide] was tested, and the IC50 [1] was 100 to 1000 nM and the EC50 [2, 4] was 1000 to 20000 nM.

`O=C([N-]c1c[n+](CC23CCC(c4cncnc4)(CC2)C3)no1)Nc1ccnc(C(F)(F)F)c1` [Example 185, (3-((4-(Pyrimidin-5-yl)bicyclo[2.2.1]heptan-1-yl)methyl)-1,2,3-oxadiazol-3-ium-5-yl)((2-(trifluoromethyl)pyridin-4-yl)carbamoyl)amide] gave an IC50 [1] of 100 to 1000 nM and an EC50 [2, 4] of 1000 to 20000 nM.

`CN(C)C[C@H]1CC[C@H]([n+]2cc([N-]C(=O)Nc3cc(NC(=O)Cc4c(F)cccc4Cl)cc(C(F)(F)F)c3)on2)CC1` [Example 198, ((3-(2-(2-Chloro-6-fluorophenyl)acetamido)-5-(trifluoromethyl)phenyl)carbamoyl)(3-((1R,4R)-4-((dimethylamino)methyl)cyclohexyl)-1,2,3-oxadiazol-3-ium-5-yl)amide] was tested, and the IC50 [1] was 1000 to 20000 nM and the EC50 [2, 3] was < 100 nM.

Compound `Cc1ccccc1CC(=O)Nc1cc(NC(=O)[N-]c2c[n+]([C@@H]3CCC[C@H](N(C)C)C3)no2)cc(C(F)(F)F)c1` [Example 202, (3-((1R,3S)-3-(Dimethylamino)cyclohexyl)-1,2,3-oxadiazol-3-ium-5-yl)((3-(2-(o-tolyl)acetamido)-5-(trifluoromethyl)phenyl)-carbamoyl)amide] has an IC50 [1] of 100 to 1000 nM and an EC50 [2, 4] of 1000 to 20000 nM.

In the case of `CN(C)C[C@H]1CC[C@H]([n+]2cc([N-]C(=O)Nc3cc(NC(=O)C(C)(C)c4ccccc4)cc(C(F)(F)F)c3)on2)CC1` [Example 208, (3-((1R,4R)-4-((Dimethylamino)methyl)-cyclohexyl)-1,2,3-oxadiazol-3-ium-5-yl)((3-(2-methyl-2-phenylpropanamido)-5-(trifluoromethyl)phenyl)carbamoyl)amide], the IC50 [1] is reported as 100 to 1000 nM and the EC50 [2, 3] is reported as 1000 to 20000 nM.

With `COc1ccccc1CC(=O)Nc1cc(NC(=O)[N-]c2c[n+](C3CCC(CN(C)C)CC3)no2)cc(C(F)(F)F)c1` [Example 153, (3-((1R,4R)-4-((Dimethylamino)methyl)-cyclohexyl)-1,2,3-oxadiazol-3-ium-5-yl)((3-(2-(2-methoxyphenyl)acetamido)-5-(trifluoromethyl)-phenyl)carbamoyl)amide] the IC50 [1] was 100 to 1000 nM and the EC50 [2, 5] was 1000 to 20000 nM.

For `Cc1ncnc(C)c1-c1ccc(C[n+]2cc([N-]C(=O)Nc3ccc(O)c(C(F)(F)F)c3)on2)cc1` [Example 261, (3-(4-(4,6-Dimethylpyrimidin-5-yl)benzyl)-1,2,3-oxadiazol-3-ium-5-yl)((4-hydroxy-3-(trifluoromethyl)phenyl)carbamoyl)amide], the IC50 [1] was < 100 nM and the EC50 [2, 4] was < 100 nM.

In the case of `CN1c2ccccc2CCC1C[n+]1cc([N-]C(=O)Nc2ccnc(C(F)(F)F)c2)on1` (racemic) [Example 178, rac-(3-((1-Methyl-1,2,3,4-tetrahydroquinolin-2-yl)methyl)-1,2,3-oxadiazol-3-ium-5-yl)((2-(trifluoromethyl)pyridin-4-yl)carbamoyl)amide], the IC50 [1] is reported as 100 to 1000 nM and the EC50 [2, 4] is reported as 100 to 1000 nM.

`CN(C)CC1CCC([n+]2cc([N-]C(=O)Nc3cc(NC(=O)CCc4cnccn4)cc(C(F)(F)F)c3)on2)CC1` [Example 158, (3-((1R,4R)-4-((Dimethylamino)methyl)-cyclohexyl)-1,2,3-oxadiazol-3-ium-5-yl)((3-(3-(pyrazin-2-yl)propanamido)-5-(trifluoromethyl-)phenyl)carbamoyl)amide] was tested, and the IC50 [1] was 1000 to 20000 nM and the EC50 [2, 5] was > 20000 nM.
